For this data set, the system named is intact mouse ear. Briefly: DMSO penetration into intact mouse ear monitored by multiplex SRS imaging with MCR analysis. It is filed as in vivo. The settings on record: DMSO applied to intact mouse ear. As for the experimental part:
In order to reduce ambiguity associated with MCR decomposition, a data augmentation matrix composed of repeating reference spectra, if needed, can be added to the spectral dataset D. The enhanced weight on pure reference spectra permits the MCR algorithm to selectively recover concentration profiles for corresponding Raman bands. An experiment was performed to test this. For tissue penetration data, pure DMSO spectrum and lipid spectrum were provided as initial estimations (reference spectra) for MCR analysis. A data augmentation matrix including reference spectra of DMSO and lipid was added to the spectral dataset in order to reduce ambiguity. For analysis of aqueous solutions of DMSO, a data augmentation matrix composed of reference spectra of DMSO was added to the spectral dataset in order to reduce MCR's ambiguity. A non-negativity constraint was used during the iterations.
FIGS. 10A, 10B, 11A, 11B, and 12 show experimental data of SRS imaging. Various aspects of parallel detection herein advantageously provide a speed of acquiring a spectrum at 30 μs time scale, or over 30,000 spectra per second. For imaging, this scheme avoids spectral profile distortion induced by sample movement, thus enabling observation of target molecules in a highly dynamic system. […] Every three minutes, one spectroscopic SRL image was acquired at the speed of 3 s per frame of 200×200 pixels. Importantly, although the C—H Raman spectra of DMSO and lipid are completely overlapped, spectroscopic SRS imaging, followed by employing MCR analysis as described above, permitted determining concentration maps of lipids and DMSO over time.
The scale bar in the 5-minute image in FIG. 10A is 20 μm. The arrow near the center of the 32-minute image in FIG. 10A indicates the location at which concentrations were measured for FIG. 12, discussed below.
The temporal dynamics of DMSO (circles) and lipid (squares) concentrations are shown. The curve represents fitting by a diffusion model. […]

`C[S+](C)[O-]` [DMSO, dimethyl sulfoxide]: under “imaged up to 32 minutes”, the “structure of the fat cells after DMSO application” value is reported as “remained intact”. The “distribution of DMSO in the adipose tissue” value (lipid-abundant layer ~50 μm beneath the skin surface, after 30 min) was “inter-cell distribution of DMSO was observed”. Under “lipid-abundant layer ~50 μm beneath the skin surface, in the first 5 min”, the “DMSO penetration into the adipose tissue” value is “Very small amounts”.

For the origin of these results see US9068949B2, “System and method for multiplex spectroscopic imaging” (Purdue Research Foundation, priority 2013, dated 2015).
